PubChem BioAssay (NCI)
“And” between values parts separate entries of the source, which are not always exact repeats. Equal entries are not always repeated.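 Assay format: 96-well plates, 48-hour exposure. Abbreviation: GI50, concentration required for 50% inhibition of growth. TGI: concentration producing complete growth inhibition.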

Key:
Test in all cases: inhibition of tumour cell growth, NCI panel, 48 h
[1] = tested on: HOP-92 NSCLC
[2] = tested on: HT29 colon
[3] = tested on: KM12 colon
[4] = tested on: NCI-H23 lung
[5] = tested on: NCI-H460 lung
[6] = tested on: OVCAR-3 ovarian
[7] = tested on: OVCAR-4 ovarian
[8] = tested on: OVCAR-5 ovarian
[9] = tested on: SK-OV-3 ovarian
[10] = tested on: UACC-257 melanoma

| Structure (SMILES) | TGI [1] | TGI [2] [µM] | TGI [3] | TGI [4] | TGI [5] | TGI [6] | TGI [7] | TGI [8] | TGI [9] | TGI [10] | GI50 [4] | GI50 [1] | GI50 [2] | GI50 [3] | GI50 [5] | GI50 [6] | GI50 [7] | GI50 [8] | GI50 [9] | GI50 [10] |
| --- | --- | --- | --- | --- | --- | --- | --- | --- | --- | --- | --- | --- | --- | --- | --- | --- | --- | --- | --- | --- |
| NCP(=O)(O)OCC(=O)O | > 100 µM | > 100 | > 100 µM | > 100 µM | > 100 µM | > 100 µM | > 100 µM | > 100 µM | > 100 µM | > 100 µM | – | – | – | – | – | – | – | – | – | – |
| Cc1ccc(NC(=O)CCC(=O)C(C#N)c2ccccc2)cc1C (stereo unspecified) | > 100 µM | > 100 | > 100 µM | > 100 µM | > 100 µM | > 100 µM | > 100 µM | > 100 µM | > 100 µM | > 100 µM | – | – | – | – | – | – | – | – | – | – |
| N=C(N)SCCc1ccccn1 | > 100 µM | > 100 | > 100 µM | > 100 µM | > 100 µM | > 100 µM | > 100 µM | > 100 µM | > 100 µM | > 100 µM | 35.5 µM and > 100 µM | – | – | – | – | – | – | – | – | – |
| CCCCCc1c(C)[nH]c(/C=C2\N=C(c3ccc[nH]3)C=C2OCc2ccccc2)c1C | 0.0562 µM and 0.0647 µM | 1.22 | 1.04 µM and 0.262 µM | 2.23 µM and 0.627 µM | 1.42 µM and 1.16 µM | 0.463 µM and 0.139 µM | 1.29 µM and 1.24 µM | 2.31 µM and 1.63 µM | 2.48 µM and 0.983 µM | 1.53 µM and 0.668 µM | 0.116 µM and 0.0563 µM | 0.00832 µM and 0.0187 µM | 0.0314 µM and 0.0196 µM | 0.0352 µM and 0.0246 µM | 0.0423 µM and 0.031 µM | 0.0447 µM and 0.0264 µM | 0.0463 µM and 0.0163 µM | 0.0701 µM and 0.0473 µM | 0.326 µM and 0.0978 µM | 0.191 µM and 0.0767 µM |
| CCOC(=O)Cc1csc(NC(=O)COC(=O)c2ccc(OC)cc2)n1 | 24.3 µM | > 80.1 | > 100 µM | > 100 µM | > 100 µM | 46.3 µM | > 100 µM | > 83.8 µM | > 100 µM | > 100 µM | 29.8 µM | 7.58 µM | 30.8 µM | > 83.6 µM | 33.8 µM | 22.4 µM | 98.2 µM | > 51.3 µM | > 75.4 µM | > 100 µM |
| CC1(C)[C@@H](OC(N)=O)C=C[C@]2(C=O)[C@H]3CC[C@]4(C)[C@@H](c5ccc(=O)oc5)[C@@H](Cl)C[C@]4(O)C3=CC[C@@H]12 | 0.0165 µM | 0.011 | 0.0238 µM | 0.0102 µM | 0.0048 µM | 0.00828 µM | 0.0121 µM | 0.0135 µM | 0.0194 µM | 0.0141 µM | 0.00298 µM | 0.0057 µM | 0.00521 µM | 0.00743 µM | < 0.0025 µM | 0.00329 µM | 0.004 µM | 0.00581 µM | 0.00653 µM | 0.00565 µM |
| COC(=O)C1CC(C(=O)OC)c2nc3cc(C)c(C)cc3nc21 (stereo unspecified) | > 100 µM | > 100 | > 100 µM | > 100 µM | > 100 µM | > 100 µM | > 100 µM | > 100 µM | > 100 µM | > 100 µM | – | – | – | – | – | – | – | – | – | – |
| CO[C@H](C(=O)O)[C@@H]1Cc2cc3cc(OC4CC(OC5CC(O)C(O)C(C)O5)C(O)C(C)O4)c(C)c(O)c3c(O)c2C(=O)[C@H]1OC1CC(OC2CC(OC3CC(C)(O)C(O)C(C)O3)C(O)C(C)O2)C(O)C(C)O1 (stereo partly specified) | 22.6 µM | > 32.5 | 2.59 µM | 2.67 µM | > 32.5 µM | 2.04 µM | > 32.5 µM | > 32.5 µM | > 32.5 µM | > 32.5 µM | 0.211 µM | 0.0736 µM | 0.305 µM | 0.233 µM | 0.131 µM | 0.28 µM | 0.607 µM | 0.375 µM | 0.445 µM | 0.38 µM |
| OC(COc1cccc2ccccc12)CN1CCN(c2ccccc2Cl)CC1 (stereo unspecified) | 16.8 µM | 12.5 | 25.9 µM | 29.8 µM | 29 µM | 27.6 µM | 25.8 µM | 24.1 µM | 37.8 µM | 31 µM | 13.3 µM | 2.47 µM | 3.3 µM | 11.8 µM | 12.8 µM | 13.9 µM | 12.6 µM | 11.5 µM | 16.8 µM | 16.5 µM |
| O=C(Nc1cccc(C(F)(F)F)c1)c1cc(Br)cc(Br)c1O | 5.82 µM | > 10 | > 10 µM | 5.27 µM | > 10 µM | 6.14 µM | > 10 µM | > 10 µM | 9.38 µM | 6.93 µM | – | – | – | – | – | – | – | – | – | – |
| O=C1c2ccccc2-c2c1c1ccccc1c(=O)n2-c1ccccc1 | > 50.3 µM | > 100 | > 100 µM | 24 µM | 36.6 µM | 34 µM | 19.2 µM | > 100 µM | 26.4 µM | > 100 µM | – | – | – | – | – | – | – | – | – | – |
| Cn1cc(NC(=O)c2cc(NC(=O)CCCCCCC(=O)Nc3cc(C(=O)Nc4cc(C(=O)NCCC(=N)N)n(C)c4)n(C)c3)cn2C)cc1C(=O)NCCC(=N)N | > 100 µM | > 100 | 13.3 µM | 15.3 µM | 21.4 µM | 50.6 µM | > 100 µM | > 100 µM | > 100 µM | 5.98 µM | – | – | – | – | – | – | – | – | – | – |
| CC(C)(C)C(=O)OCc1nc2cc3c(cc2c(=O)[nH]1)CCC3=O | > 100 µM | > 100 | > 100 µM | > 100 µM | > 100 µM | > 100 µM | > 100 µM | > 100 µM | > 100 µM | > 100 µM | > 100 µM | > 100 µM | > 100 µM | > 100 µM | > 100 µM | > 100 µM | > 100 µM | > 100 µM | > 100 µM | > 100 µM |
| COc1ccc2c(c1)CC[C@@H]1[C@@H]2CC[C@]2(C)C=C(/C=C/C(=O)c3ccccc3)C[C@@H]12 | 29.7 µM | 35.7 | 39.6 µM | 30.8 µM | 35.4 µM | 31.7 µM | 31.6 µM | 30.7 µM | 38.9 µM | 34.6 µM | 15.4 µM | 15.5 µM | 17 µM | 17.7 µM | 17.2 µM | 16.2 µM | 16.2 µM | 16.5 µM | 20.8 µM | 16.2 µM |
| CN(C)CC1CCCC/C1=N/OC(=O)c1ccc(Cl)c(Cl)c1 (stereo unspecified) | > 100 µM | > 100 | > 100 µM | > 100 µM | > 100 µM | > 100 µM | > 100 µM | > 100 µM | > 100 µM | > 100 µM | – | – | – | – | – | – | – | – | – | – |
| Nc1nc(N)c(-c2ccccc2)c(CCC(=O)Nc2ccc(Cl)cc2)n1 | > 100 µM | > 100 | > 100 µM | > 100 µM | > 100 µM | > 100 µM | > 100 µM | > 100 µM | > 100 µM | > 100 µM | – | – | – | – | – | – | – | – | – | – |
